From article PMC6151550, “Inhibitory Effect of Selaginellins from Selaginella tamariscina (Beauv.) Spring against Cytochrome P450 and Uridine 5′-Diphosphoglucuronosyltransferase Isoforms on Human Liver Microsomes” (Molecules : A Journal of Synthetic Chemistry and Natural …, 2017) come the findings set out here.

Read-outs that look alike come from different tables or passages of the source. Where only a bound is given, the exact number is not on record here.

By IC50 is commonly meant the concentration at which inhibition is half-maximal.

Holding throughout (format): in vitro ADME
One data set has as its system CYP3A. As to the kind of experiment: CYP3A inhibition (midazolam 1'-hydroxylase) in human liver microsomes, substrate cocktail LC-MS/MS. The procedure:
(§1) The inhibitory effects of two selaginellins on the metabolism of ten P450 probe substrates were evaluated using previously reported method with minor modification. Phenacetin O-deethylase, coumarin 7-hydroxylase, bupropion 4-hydroxylase, amodiaquine N-deethylase, tolbutamide 4-hydroxylase, omeprazole 5-hydroxylase, dextromethorphan O-demethylase, chlorzoxazone 6-hydroxylase and midazolam 1′-hydroxylase activities were determined as probe activities for CYP1A2, CYP2A6, CYP2B6, CYP2C8, CYP2C9, CYP2C19, CYP2D6, CYP2E1 and […], respectively, using substrate cocktail incubation and tandem mass spectrometry (Table 2). Selaginellins were dissolved in methanol. The final concentrations of organic solvent (methanol) for the cocktail incubation conditions in all experiments were 1.0% (v/v). In brief, the incubation mixtures containing pooled HLMs (0.25 mg/mL, H2630, Xenotech), P450 probe substrate cocktail, and inhibitor (0, 0.5, 2, 5, 20 and 50 μM) were preincubated at 37 °C for 5 min. […] After mixing and centrifugation, aliquots were analyzed by liquid chromatography-tandem mass spectrometry (LC-MS/MS) as previous described. The CYP2J2 inhibitory effects of two selaginellins were also evaluated in pooled HLMs using previously reported method. […]
A general note: Microsomes from liver hold many membrane-bound enzymes, among them those of drug oxidation.

Another data set addresses T1, CYP2D6 (Homo sapiens, UniProt P10635).
T1 construct: the incubation mixtures containing pooled HLMs (0.25 mg/mL, H2630, Xenotech); tissue Xenotech H2630; host or cells: pooled human liver microsomes
As to the kind of experiment: CYP2D6 inhibition (dextromethorphan O-demethylase) in human liver microsomes, substrate cocktail LC-MS/MS. The protocol:
as §1

In a further data set the target is T2, CYP1A2 (Homo sapiens, UniProt P05177).
T2 construct: the incubation mixtures containing pooled HLMs (0.25 mg/mL, H2630, Xenotech); tissue Xenotech H2630; host or cells: pooled human liver microsomes
T2 sequence (P05177 1-516): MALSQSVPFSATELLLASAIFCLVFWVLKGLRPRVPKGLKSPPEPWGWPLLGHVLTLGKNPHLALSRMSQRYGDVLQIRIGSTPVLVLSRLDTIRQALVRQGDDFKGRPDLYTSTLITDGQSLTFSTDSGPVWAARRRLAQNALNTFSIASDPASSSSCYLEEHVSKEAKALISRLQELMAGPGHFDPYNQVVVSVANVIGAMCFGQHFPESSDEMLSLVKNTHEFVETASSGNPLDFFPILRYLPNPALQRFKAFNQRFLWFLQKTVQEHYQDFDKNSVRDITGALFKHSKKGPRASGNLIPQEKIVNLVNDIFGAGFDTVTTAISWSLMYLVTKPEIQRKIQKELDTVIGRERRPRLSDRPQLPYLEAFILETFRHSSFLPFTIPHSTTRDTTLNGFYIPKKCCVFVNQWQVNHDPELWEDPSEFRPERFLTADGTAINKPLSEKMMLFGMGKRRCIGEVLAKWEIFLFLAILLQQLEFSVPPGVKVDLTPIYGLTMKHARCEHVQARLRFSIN
Description: CYP1A2 inhibition (phenacetin O-deethylase) in human liver microsomes, substrate cocktail LC-MS/MS. The procedure: as §1

The target of another data set is T3, UGT1A6 (Homo sapiens, UniProt P19224).
T3 construct: from tissue; host or cells: human liver microsomes
T3 sequence (P19224 27-532): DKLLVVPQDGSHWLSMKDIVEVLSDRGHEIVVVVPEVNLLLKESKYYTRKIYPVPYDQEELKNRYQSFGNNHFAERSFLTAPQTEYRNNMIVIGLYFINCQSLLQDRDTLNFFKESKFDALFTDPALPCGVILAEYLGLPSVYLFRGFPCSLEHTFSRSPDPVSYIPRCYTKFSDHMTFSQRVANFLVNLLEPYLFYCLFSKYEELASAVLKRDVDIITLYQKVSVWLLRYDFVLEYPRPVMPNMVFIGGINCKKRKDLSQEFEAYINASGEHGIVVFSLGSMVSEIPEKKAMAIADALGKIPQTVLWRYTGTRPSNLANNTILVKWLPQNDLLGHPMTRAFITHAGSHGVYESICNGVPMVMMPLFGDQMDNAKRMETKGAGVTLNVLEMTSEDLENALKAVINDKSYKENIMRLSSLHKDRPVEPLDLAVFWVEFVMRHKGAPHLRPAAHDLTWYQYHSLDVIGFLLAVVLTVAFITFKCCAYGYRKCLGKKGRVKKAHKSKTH
As to the kind of experiment: UGT1A6 inhibition (N-acetylserotonin glucuronidation) in human liver microsomes, cocktail LC-MS/MS. The procedure: The inhibitory effects of two selaginellins on the metabolism of six UGT probe substrates were evaluated using previously reported method with minor modification. In brief, HLMs (0.25 mg/mL) were activated by incubation in the presence of alamethicin (25 μg/mL) for 15 min on ice. After the addition of UGT isoform-selective substrates and selaginellins (0, 0.5, 2, 5, 20 and 50 μM) the final concentrations of organic solvent (methanol) for the cocktail incubation conditions were 1.0% (v/v). The incubation reaction mixtures were pre-incubated for 5 min. The reaction was initiated by the addition of 5 mM UDPGA and further incubated for 60 min. All reactions were terminated by adding ice-cold acetonitrile containing estrone glucuronide (IS). After mixing and centrifugation, aliquots were injected into a LC-MS/MS as described previously (Table 2). All microsomal incubations were performed in triplicate.
The IC50 values (concentration of the inhibitor causing 50% inhibition of the original enzyme activity) were calculated using WinNonlin software (Pharsight, Mountain View, CA, USA): percentage of control activity = 100 × [1 − (I/(I + IC50))], where I is the inhibitor concentration, and IC50 is the inflection point on the curve.

T1 sequence (P10635 whole entry): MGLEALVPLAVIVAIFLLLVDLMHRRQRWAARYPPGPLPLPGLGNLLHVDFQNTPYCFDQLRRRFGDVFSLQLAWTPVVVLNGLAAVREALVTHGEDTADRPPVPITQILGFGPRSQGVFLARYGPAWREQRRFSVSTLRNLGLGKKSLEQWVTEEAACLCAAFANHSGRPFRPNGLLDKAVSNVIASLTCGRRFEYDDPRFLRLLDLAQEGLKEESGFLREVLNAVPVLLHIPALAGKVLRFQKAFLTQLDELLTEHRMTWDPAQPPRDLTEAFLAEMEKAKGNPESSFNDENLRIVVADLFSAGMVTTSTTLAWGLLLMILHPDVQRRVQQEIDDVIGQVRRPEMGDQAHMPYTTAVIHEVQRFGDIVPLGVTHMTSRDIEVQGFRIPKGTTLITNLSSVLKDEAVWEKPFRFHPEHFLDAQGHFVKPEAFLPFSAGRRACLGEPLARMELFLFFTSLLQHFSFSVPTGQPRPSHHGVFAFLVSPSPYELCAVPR

In the data set on CYP3A, `COc1ccc(C(=C2C=CC(=O)C=C2)c2c(-c3ccc(O)cc3)ccc(CO)c2C#Cc2ccc(O)cc2)cc1` [Selaginellin M] gave an IC50 at 15 min of over 50 µM. Also, the IC50 against CYP2D6 was 6.8 µM; on CYP1A2 (pooled HLMs 0.25 mg/mL, phenacetin 100 μM, read-out: IC50 P450 isoform 1A2) it was over 50 µM; against UGT1A6, 36.5 µM.
Regarding `O=C1C=CC(=C(c2ccc(O)cc2)c2c(-c3ccc(O)cc3)ccc(CO)c2C#Cc2ccc(O)cc2)C=C1` [Selaginellin], the IC50 at 15 min in the data set on CYP3A (pooled HLMs 0.25 mg/mL, midazolam 5.0 μM, read-out: IC50 P450 isoform 3A) stood at 11.7 µM. The results for the IC50 on CYP2D6, against CYP1A2 and against UGT1A6 were 5.8 µM, 36.4 µM and 25.3 µM, respectively.
